Results reported in patent US12311054B2, “Compositions and methods of using propylene sulfide-based polymers for treatment of Chagas disease” (priority 2019, dated 2025).
Like-named read-outs stand apart in the source and are kept apart here.

Tests used:
[1] = test system: extracellular T. cruzi developmental stages; details: cited from earlier work
[2] = traditional oral formulation; cited from earlier work
[3] = Assessment of the toxicity of BNZ and BNZ-PS in vivo; set-up: species or system mouse; details: BNZ 100 mg/kg
Protocol: […] Mice weight was recorded during the treatment course. […] Serums (Sera) were sent out to central lab (IDEXX BioResearch) to measure alanine aminotransferase (ALT/SGPT), aspartate aminotransferase (AST/SGOT), bile acid, bilirubin, blood urea nitrogen (BUN), creatinine, gamma-glutamyltransferase (GGT).

[4] = test system: T. cruzi Y strain infected BALB/c mice; assay: BNZ and BNZ-PS therapy in murine model of acute Chagas disease; type: in vivo, mouse
[5] = test system: T. cruzi Tulahuen strain amastigote (Luc-mNeonGreen); assay: Anti-amastigote activity in infected H9C2 cells, bioluminescent quantification, Tulahuen strain; type: cell-based; details: Trypanosoma cruzi, Tulauan strain amastigotes in H9C2 cells, bioluminescence, 48 h
Protocol: For the evaluation of anti-amastigote activity of T. cruzi Tulahuen strain, 5000 H9C2 cells were seeded in a 96 well clear bottom tissue culture plate (Thermo Scientific). After 24 hours, the culture was infected with Luc-mNeonGreen Tulahuen strain trypomastigotes at a 1:5 host-to-parasite cell ratio for 24 h. […] The medium was replaced every 24 h. At 48 h, 10 μL of 15 mg mL-1 luciferin were added into each well, and the luciferase intensity was measured using a IVIS Spectrum (Caliper Life Science) and the ROI was analyzed with Softmas Pro. Exposure time varied from 5 s to 15 s depending on signal intensity.

[6] = humans; cited from earlier work
[7] = test system: T. cruzi-infected patients; details: standard BNZ doses; cited from earlier work
[8] = cited from earlier work
[9] = test system: T. cruzi Tulauen strain trypomastigote; assay: Anti-trypomastigote activity, resazurin assay, Tulauen strain; type: cell-based; details: Trypanosoma cruzi, read-out: half-inhibitory concentration (IC50), Tulauan strain trypomastigote
Protocol: (§1) IC50 for two strains of T. cruzi. The trypancidal effectiveness of BNZ-PS for Y and Tulauen strain was evaluated in vitro using the resarzurin assay (FIG. 2a).
(§2) Resazurin method was used to evaluate in vitro anti-trypanosoma activity against Y trypomastigotes. 1×10^7 trypomastigotes mL^−1 were incubated in 96-well plates containing serial dilution of BNZ and BNZ-PS in RPMI […] medium with 5% FBS, penicillin (100 μL/mL), […] (100 μL/mL) and L-glutamine (2 mM). For BNZ, the stock solution (1024 mM) was prepared in DMSO and made serial dilution to 1024 μM, 512 μM, 256 μM, 128 μM, 64 μM, 32 μM, 16 μM, 8 μM, 4 μM. For BNZ-PS, the stock solution (BNZ 1170 μM) was made serial dilution to 256 μM, 128 μM, 64 μM, 32 μM, 16 μM, 8 μM, 4 μM, 2 μM, 1 μM, 0.5 μM. After incubation for 24 h, at 37° C. and 5% CO2, 10 μL of alamarBlue Cell Viability reagent (Invitrogen) were added in each well, then incubate at 37° C. for 4 h. The fluorescence was measure on a microplate reader (BMG Labtech) at 560/590 nm to evaluate trypomastigote viability. A log concentration vs response curve was generated and the BNZ IC50 was calculated in GraphPad Prism 7.0.

[10] = mice; cited from earlier work
[11] = test system: T. cruzi; assay: IC50 of free vs nanocarrier-loaded Benznidazole (description, stage and strain not stated); type: cell-based; details: Trypanosoma cruzi; free vs loaded in nanocarrier; typical / estimated values
[12] = test system: T. cruzi Y strain trypomastigote; assay: Anti-trypomastigote activity, resazurin assay, Y strain; type: cell-based; details: Trypanosoma cruzi, 24 h, read-out: half-inhibitory concentration (IC50), Y strain trypomastigote
Protocol: as §1
The Y strain of T. cruzi was used for all experiments. Epimastigotes were cultured using standard methods and tissue culture amastigotes and trypomastigotes were produced by the addition of log-phase epimastigotes to cultured H9C2 rat myoblast cells, which contain small numbers of metacyclic trypomastigotes capable of initiating mammalian cell infection. After several days of culture in H9C2 cells, amastigotes and trypomastigotes were purified for use in IC50 determination experiments.
as §2, with “For BNZ-PS, the stock solution (BNZ 1170 μM) was made serial dilution to 256 μM, 128 μM, 64 μM, 32 μM, 16 μM, 8 μM, 4 μM, 2 μM, 1 μM, 0.5 μM. After incubation for 24 h, at 37° C. and 5% CO2, 10 μL of alamarBlue Cell Viability reagent (Invitrogen) were added in each well, then incubate at 37° C. for 4 h.” left out

[13] = test system: T. cruzi Y strain amastigote; assay: Anti-amastigote activity in infected H9C2 cells, Giemsa counting, Y strain; type: cell-based; details: Trypanosoma cruzi, Y strain amastigotes in H9C2 cells, 48 h

| SMILES | activity against extracellular T. cruzi developmental stages [1] | fraction of drug bound to plasmatic proteins [2] | hepatotoxicity, serum ALT ([3]; d21) | body weight during treatment ([3]; BNZ-PS 1.5 or 0.15 mg/kg, 3 weeks) | heart parasitemia (qPCR) ([4]; end of experiment, 25 dpi) | suppression of parasitemia ([4]; infected mice treated from d7, monitored to d25) | IC50 [5] | half-life (t1/2) [6] | patients interrupting treatment due to severe side effects [7] | water solubility [8] | water solubility ([8]; listed as Benznidazole (BNZ)) | IC50 [9] | half-life (t1/2) [10] | IC50 [11] | IC50 [12] | IC50 [13] |
| --- | --- | --- | --- | --- | --- | --- | --- | --- | --- | --- | --- | --- | --- | --- | --- | --- |
| C[C@@H]1[C@H](O)[C@@H](C)/C=C/C=C/C=C/C=C/C=C/C=C/C=C/[C@H](O[C@@H]2O[C@H](C)[C@@H](O)[C@H](N)[C@@H]2O)C[C@@H]2O[C@](O)(C[C@@H](O)C[C@@H](O)[C@H](O)CC[C@@H](O)C[C@@H](O)CC(=O)O[C@H]1C)C[C@H](O)[C@H]2C(=O)O [Amphotericin B] | satisfactory | – | – | – | – | – | – | – | – | – | – | – | – | – | – | – |
| O=C(Cn1ccnc1[N+](=O)[O-])NCc1ccccc1 [BNZ, N-benzyl-2-(2-nitro-1H-imidazol-1-yl)acetamide] | – | over 40% | show hepatotoxicity as reflected by increased serum ALT | lose weight | significantly reduces the heart parasitemia | Effective suppression of parasitemia | 12.5 µM | 12 h | 20% | practically insoluble in water | poor water solubility | 12.4 µM | 2 h | ~33 µM | 55.9 µM | 30.1 µM |
